What all share (type): cell-based
The target in experiment [1] is T1, Top1 (Homo sapiens, UniProt P11387).
T1 sequence (P11387 1-765): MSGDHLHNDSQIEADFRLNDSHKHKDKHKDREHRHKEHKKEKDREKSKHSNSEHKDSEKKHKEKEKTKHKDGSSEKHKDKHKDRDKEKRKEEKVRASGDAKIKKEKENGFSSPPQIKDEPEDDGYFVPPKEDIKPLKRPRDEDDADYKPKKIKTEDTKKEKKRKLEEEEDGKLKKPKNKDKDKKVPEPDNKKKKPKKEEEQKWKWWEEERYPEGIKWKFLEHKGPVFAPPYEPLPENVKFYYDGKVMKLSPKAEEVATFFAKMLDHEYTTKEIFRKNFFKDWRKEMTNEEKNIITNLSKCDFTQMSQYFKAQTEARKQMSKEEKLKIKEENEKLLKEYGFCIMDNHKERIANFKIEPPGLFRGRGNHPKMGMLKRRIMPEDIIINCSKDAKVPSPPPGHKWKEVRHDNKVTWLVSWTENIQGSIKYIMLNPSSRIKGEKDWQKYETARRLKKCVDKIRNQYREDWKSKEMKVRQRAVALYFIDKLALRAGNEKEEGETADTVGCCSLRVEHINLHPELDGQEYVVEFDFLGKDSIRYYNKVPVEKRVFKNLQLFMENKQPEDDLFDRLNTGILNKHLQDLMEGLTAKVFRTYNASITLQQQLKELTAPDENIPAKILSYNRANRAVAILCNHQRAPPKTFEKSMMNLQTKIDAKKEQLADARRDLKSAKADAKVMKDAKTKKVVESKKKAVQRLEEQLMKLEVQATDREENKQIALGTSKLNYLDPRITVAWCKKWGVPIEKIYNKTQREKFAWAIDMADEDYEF
As to the kind of experiment: Top1 degradation by Western blot, MDA-MB-231. Conditions: 4, and 6 hours, then 30-minute drug-free media. Also on record: dose or concentration left out as unconfirmed. The procedure:
(§1) FIG. 4. Level of Top1-degradation predicts cell line sensitivity. (a) Cells treated with 25 μM of compound for indicated times followed by a 30 minute incubation with drug-free media. Cells were lysed with RIPA and Top1 levels assessed by Western Blot. (b) Degradation of Top1 results in a right-ward shift in the dose-response curve. Effect is most pronounced in Top1-poisons (Ph-6DNM-NH3, CPT) than Top1 catalytic inhibitor (6DNM-Pyr). Cell death measured by SRB assay after 72 hour of compound exposure (n≥3 biological replicates, error bars show SEM).
(§2) This difference in mechanism of action between Ph-6DNM-NH3 and 6DNM-Pyr may provide an explanation of the differences in cell line sensitivities between the different DNM derivatives. […] This downregulation serves as a resistance mechanism and the level of Top1 degradation is correlated with reduced sensitivity to CPT. To determine if a similar mechanism is responsible for the reduced sensitivity to Ph-6DNM-NH3 and its derivatives in certain cell lines, the effects of Ph-6DNM-NH3 and 6DNM-Pyr were compared to that of CPT in […] and BT-474, two cancer cell lines known to be deficient and proficient in Top1 degradation, respectively. Cells were treated with 50 μM Ph-6DNM-NH3, 6DNM-Pyr, or CPT for 2, 4, and 6 hours. Following a 30-minute incubation with drug-free media to allow for the reversal of any Top1cc formed, cells were lysed and Top1 concentrations assessed by Western blot (FIG. 4a).

Experiment [2] concerns the target T1, Top1. As to the kind of experiment: Top1 degradation by Western blot, BT-474. Conditions: 50 μM for 2, 4, and 6 hours, then 30-minute drug-free media. The procedure:
as §1, §2
For orientation: A western blot detects proteins with antibodies after separation by electrophoresis.

The next experiment concerns BT-474. Nature of the experiment: Antiproliferative SRB assay, BT-474. An excerpt: (§3) Topoisomerase inhibitors such as DOX are used as single agent and in combination therapy to treat a wide-range of cancer types.
In general terms: The SRB assay estimates cell density from bound dye.

The subject of experiment [3] is MDA-MB-231 triple negative breast cancer cells. Nature of the experiment: Antiproliferative SRB assay, MDA-MB-231. Conditions: SRB assay; for IC50: Homo sapiens, MDA-MB-231, 72 h, mean ± SEM. The procedure: FIG. 1. […] Cell death measured by SRB assay after 72 hour of compound exposure (n≥3 biological replicates, error bars show SEM). IC50 values given as mean±SEM from ≥3 biological replicates.
To investigate the feasibility of developing a class of antitumor antibiotics based upon the DNM scaffold, the ability of the DNM to exert an antiproliferative effect against MDA-MB-231 breast cancer cells was evaluated.

A further experiment concerns E. coli. Nature of the experiment: Antibacterial MIC, microbroth dilution, E. coli. Conditions: Escherichia coli. The procedure: (§4) To investigate this possibility, the antibacterial effects of the DNM derivatives was assessed against strains of E. coli, S. aureus, and MRSA using the microbroth dilution method (Table 2).
The next experiment concerns H460. Nature of the experiment: Antiproliferative SRB assay, H460. Conditions: Homo sapiens, NCI-H460, 72 h, Lung cancer, mean ± SEM.
Source text: as §3

A further experiment relates to Jurkat. Nature of the experiment: Cell viability Alamar Blue assay, Jurkat. Conditions: Homo sapiens, 72 h, Leukemia, mean ± SEM.
Source text: as §3
Background: Resazurin is reduced to fluorescent resorufin, in cell work by metabolically active cells.

The subject of a further experiment is ES-2. Nature of the experiment: Antiproliferative SRB assay, ES-2. Conditions: Homo sapiens, ES-2, 72 h, Cervical cancer (footnote f), mean ± SEM.
Source text: as §3

In a further experiment the test system is HCT-116. Nature of the experiment: Antiproliferative SRB assay, HCT-116. Conditions: Homo sapiens, HCT-116, 72 h, Colon cancer, mean ± SEM.
Source text: as §3

The test system of the next experiment is HL-60. As to the kind of experiment: Cell viability Alamar Blue assay, HL-60. Conditions: Homo sapiens, HL-60, 72 h, Leukemia, mean ± SEM.
Source text: as §3

The test system of a further experiment is panel of cancer cells. As to the kind of experiment: Average over panel of 10 cancer cell lines. Conditions: 72 hour, read-out: Average (mean) IC50 over the cell line panel.
Source text: as §3

In another experiment the test system is IMR32. As to the kind of experiment: Antiproliferative SRB assay, IMR32. Conditions: Homo sapiens, IMR-32, 72 h, Neuroblastoma, mean ± SEM.
Source text: as §3

Another experiment concerns HOS. As to the kind of experiment: Antiproliferative SRB assay, HOS. Conditions: Homo sapiens, 72 h, Osteosarcoma, mean ± SEM.
Source text: as §3

The test system of a further experiment is HeLa. As to the kind of experiment: Antiproliferative SRB assay, HeLa. Conditions: Homo sapiens, 72 h, Ovarian cancer (footnote e), mean ± SEM.
Source text: as §3

The subject of the next experiment is S. aureus. Nature of the experiment: Antibacterial MIC, microbroth dilution, S. aureus. Conditions: Staphylococcus aureus. Here is the method: as §4

This note sets out measurements from patent publication US11274106B2, “Topoisomerase inhibitors with antibacterial and anticancer activity” (THE BOARD OF TRUSTEES OF THE UNIVERSITY OF ILLINOIS, priority 2017, dated 2022).

For orientation: MIC means the smallest concentration in the dilution series that meets the test's criterion for growth inhibition. What is called IC50 is the concentration needed to halve the response being measured.

Converted amounts (≈) assume the structure as drawn. Like-named read-outs stand apart in the source and are kept apart here.

In the case of `CC[C@@]1(O)C(=O)OCc2c1cc1n(c2=O)Cc2cc3ccccc3nc2-1` [CPT, camptothecin, reference compound], the “Top1 levels by Western blot in MDA-MB-231” value on Top1 [1] is given as “minimal differences in Top1 relative to untreated cells”. Also, at Top1 [2], the “Top1 levels by Western blot in BT-474” value is “time-dependent decrease in the levels of Top1”. Further, in the experiment on BT-474 (FIG. 4b, 72 hour), the “Effectiveness in BT-474 after Top1 degradation” value is given as “nearly complete resistance”. In addition, the “Antiproliferative effect against MDA-MB-231 cells” value in [3] (FIG. 1, 72 hour) was “sensitive”.

As to `Cc1cc(=O)n2c3c(c4c(cc13)c1ccccc1c(=O)n4C)OCC2CN1CCCC1` (stereo not drawn) [Compound 22], the MIC against E. coli was 1 µg/mL (≈ 2.41 µM); with S. aureus it was 0.25 µg/mL (≈ 0.602 µM). The IC50 amounted to 7.2 ± 0.6 nM in the experiment with H460; 69 ± 7 nM with Jurkat; 23 ± 4 nM in the experiment with ES-2; 235 ± 1 nM in the experiment with BT-474 (Homo sapiens, BT-474, 72 h, Breast cancer, mean ± SEM); 23 ± 3 nM with HCT-116; 94 ± 6 nM in the experiment with HL-60. Also, the IC50 was 55 nM with panel of cancer cells; 4.9 ± 0.1 nM with IMR32; 16 ± 0.4 nM with HOS; 46 ± 2 nM in the experiment on HeLa; 31 ± 3 nM in experiment [3] (Breast cancer, read-out: 72 hour IC50, MDA-MB-231); 31 ± 3 nM in experiment [3] (72 hour compound exposure, read-out: MDA-MB-231 IC50).
